Among the data in PubChem BioAssay AID1259411 (Chemical Carcinogenesis Research Information System (CCRIS), 2018) are carcinogen call values, retold here.

The series concerns rodent carcinogenicity bioassays, tumor incidence. Description: CCRIS carcinogenicity studies. To be noted: Dose: 0, Dose: 0. In a few lines:
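Archive of carcinogenicity, mutagenicity, tumor promotion and tumor inhibition results drawn from journals, NCI reports and other sources, expert-reviewed; covers 1985-2011 and is no longer updated.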

The source made the active and inactive calls. No rule for the calls is given here.

With `ClC(Cl)Br`, the carcinogen call (Species: FISH, Strain/Sex: ORYZIAS LATIPES/FEMALE, Route: IMMERSION, 0.018, 0.143, 1.424 MG/L AQUEOUS SOLUTION FOR 6 MO (STUDY DURATION: 6 MO), 0.018, 0.143, 1.424 MG/L AQUEOUS SOLUTION FOR 6 MO (STUDY DURATION: 6 MO)) is “inactive; negative”; the carcinogen call (Species: FISH, Strain/Sex: ORYZIAS LATIPES/FEMALE, Route: IMMERSION, 0.018, 0.143, 1.424 MG/L AQUEOUS SOLUTION FOR 9 MO (STUDY DURATION: 9 MO), 0.018, 0.143, 1.424 MG/L AQUEOUS SOLUTION FOR 9 MO (STUDY DURATION: 9 MO)) was “inactive; negative”; the carcinogen call (Species: FISH, Strain/Sex: ORYZIAS LATIPES/MALE, Route: IMMERSION, 0.018, 0.143, 1.424 MG/L AQUEOUS SOLUTION FOR 6 MO (STUDY DURATION: 6 MO), 0.018, 0.143, 1.424 MG/L AQUEOUS SOLUTION FOR 6 MO (STUDY DURATION: 6 MO)) is “inactive; negative”; the carcinogen call (Species: FISH, Strain/Sex: ORYZIAS LATIPES/MALE, Route: IMMERSION, 0.018, 0.143, 1.424 MG/L AQUEOUS SOLUTION FOR 9 MO (STUDY DURATION: 9 MO), 0.018, 0.143, 1.424 MG/L AQUEOUS SOLUTION FOR 9 MO (STUDY DURATION: 9 MO)) was “inactive; negative”; the carcinogen call (Species: MOUSE, Strain/Sex: B6C3F1/FEMALE, Route: GAVAGE, 75, 150 MG/KG IN CORN OIL 5D/WK FOR 102 WK (STUDY DURATION: 105 WK), 75, 150 MG/KG IN CORN OIL 5D/WK FOR 102 WK (STUDY DURATION: 105 WK), Tumor Site: Type of Lesion: LIVER: HEPATOCELLULAR ADENOMA, LIVER: HEPATOCELLULAR CARCINOMA, LIVER: HEPATOCELLULAR ADENOMA OR CARCINOMA, Tumor Site: Type of Lesion: LIVER: HEPATOCELLULAR ADENOMA, LIVER: HEPATOCELLULAR CARCINOMA, LIVER: HEPATOCELLULAR ADENOMA OR CARCINOMA) was “active; positive”; the carcinogen call (Species: MOUSE, Strain/Sex: B6C3F1/MALE, Route: GAVAGE, 25, 50 MG/KG IN CORN OIL 5D/WK FOR 102 WK (STUDY DURATION: 105 WK), 25, 50 MG/KG IN CORN OIL 5D/WK FOR 102 WK (STUDY DURATION: 105 WK), Tumor Site: Type of Lesion: KIDNEY: TUBULAR CELL ADENOMA OR ADENOCARCINOMA) is “active; positive”. Further, the carcinogen call by setting is: (Species: MOUSE, Strain/Sex: B6C3F1/MALE, Route: ORAL, 8.1, 27.2, 43.4 MG/KG/D IN 0.25% EMULPHOR IN DRINKING WATER FOR 100 WK (STUDY DURATION: 100 WK), 8.1, 27.2, 43.4 MG/KG/D IN 0.25% EMULPHOR IN DRINKING WATER FOR 100 WK (STUDY DURATION: 100 WK)) “inactive; negative”; (Species: Mouse, Strain/Sex: B6C3F1/female, Route: Oral, 175, 350, 700 mg/L (about 0, 9, 18, and 36 mg/kg, respectively) in drinking water for 104 wk, 175, 350, 700 mg/L (about 0, 9, 18, and 36 mg/kg, respectively) in drinking water for 104 wk) “inactive; negative”; (Species: RAT, Strain/Sex: F344/FEMALE, Route: GAVAGE, 50, 100 MG/KG IN CORN OIL 5D/WK FOR 102 WK (STUDY DURATION: 104 WK), 50, 100 MG/KG IN CORN OIL 5D/WK FOR 102 WK (STUDY DURATION: 104 WK), Tumor Site: Type of Lesion: LARGE INTESTINE: ADENOMATOUS POLYP, LARGE INTESTINE: ADENOCARCINOMA, LARGE INTESTINE: ADENOMATOUS POLYP OR ADENOCARCINOM, Tumor Site: Type of Lesion: LARGE INTESTINE: ADENOMATOUS POLYP, LARGE INTESTINE: ADENOCARCINOMA, LARGE INTESTINE: ADENOMATOUS POLYP OR ADENOCARCINOM) “active; positive”; (Species: RAT, Strain/Sex: F344/MALE, Route: GAVAGE, 50, 100 MG/KG IN CORN OIL 5D/WK FOR 102 WK (STUDY DURATION: 104 WK), 50, 100 MG/KG IN CORN OIL 5D/WK FOR 102 WK (STUDY DURATION: 104 WK), Tumor Site: Type of Lesion: LARGE INTESTINE: ADENOCARCINOMA, LARGE INTESTINE: ADENOMATOUS POLYP, LARGE INTESTINE: ADENOMATOUS POLYP OR ADENOCARCINOM, Tumor Site: Type of Lesion: LARGE INTESTINE: ADENOCARCINOMA, LARGE INTESTINE: ADENOMATOUS POLYP, LARGE INTESTINE: ADENOMATOUS POLYP OR ADENOCARCINOM) “active; positive”; (Species: RAT, Strain/Sex: F344/MALE, Route: ORAL, 3.9, 20.6, 36.3 MG/KG/D IN 0.25% EMULPHOR IN DRINKING WATER FOR 100 WK (STUDY DURATION: 100 WK), 3.9, 20.6, 36.3 MG/KG/D IN 0.25% EMULPHOR IN DRINKING WATER FOR 100 WK (STUDY DURATION: 100 WK), Tumor Site: Type of Lesion: LIVER: HEPATOCELLULAR ADENOMA, HEPATOCELLULAR ADENOMA OR HEPATOCELLULAR CARCINOMA) “active; positive”; (Species: RAT, Strain/Sex: WISTAR/FEMALE, Route: ORAL, 1.2 ML/L (15 MILLIMOLAR) IN DRINKING WATER FOR 72 WK THEN DOSE HALVED FOR DURATION OF STUDY (STUDY DURATION: LIFETIME, Tumor Site: Type of Lesion: LIVER: NEOPLASTIC NODULES, LYMPHOID TISSUE: LYMPHOSARCOMA) “active; positive”. Further, the carcinogen call is “inactive; negative” (Species: RAT, Strain/Sex: WISTAR/MALE, Route: ORAL, 1.2 ML/L (15 MILLIMOLAR) IN DRINKING WATER FOR 72 WK THEN DOSE HALVED FOR DURATION OF STUDY (STUDY DURATION: LIFETIME); “inactive; negative” (Species: Rat, Strain/Sex: F344/N/male, Route: Oral, 175, 350, 700 mg/L (about 0, 6, 12, and 25 mg/kg, respectively) in drinking water for 104 wk, 175, 350, 700 mg/L (about 0, 6, 12, and 25 mg/kg, respectively) in drinking water for 104 wk).

In the case of `Cc1cc(=O)n(-c2ccccc2)n1C`, the carcinogen call (Species: RAT, Strain/Sex: SPRAGUE-DAWLEY/MALE, Route: ORAL, 0.535% IN DIET FOR 117 WK, Tumor Site: Type of Lesion: KIDNEY) was “active; positive”.
